Among the data in ChEMBL document CHEMBL1150088, “Bioactive Guanidine Alkaloids from Pterogyne nitens” (J Nat Prod, 1995) are IC12 and IC50 values, retold here.

Structures are written as SMILES. In brackets after ≈: the same amount, converted by molar mass. Where only a bound is given, the exact number is not on record here.

Assay [1] relates to Saccharomyces cerevisiae. The assay can be described thus: DNA damaging activity against RS321 DNA repair gene deficient Saccharomyces cerevisiae mutant assessed as drug level required to produce 12 mm zone of inhibition after 48 hrs. The format is functional.
The test system of assay [2] is Saccharomyces cerevisiae. As to the kind of experiment: DNA damaging activity against RS167N rad6 DNA repair gene deficient Saccharomyces cerevisiae mutant assessed as drug level required to produce 12 mm zone of inhibition after 48 hrs. The format is functional.
For assay [3], the system named is Saccharomyces cerevisiae. As to the kind of experiment: DNA damaging activity against RS322YK rad52Y DNA repair gene deficient Saccharomyces cerevisiae mutant assessed as drug level required to produce 12 mm zone of inhibition after 48 hrs. The format is functional.
Assay [4] has as its system Saccharomyces cerevisiae. As to the kind of experiment: DNA damaging activity against RS188N rad DNA repair gene expressing Saccharomyces cerevisiae assessed as drug level required to produce 12 mm zone of inhibition after 48 hrs. In kind it is functional.
The nature of assay [5]: Cytotoxicity against CHOAUXB1 cells. The format is cell-based. The following applies: Cricetulus griseus.

In the case of `CC(C)=CCNC(=N)NCC=C(C)C` [PTEROGYNIDINE], the IC12 is 8.5 µg/mL with Saccharomyces cerevisiae [1], above 1000 µg/mL in the assay on Saccharomyces cerevisiae [2], above 1000 µg/mL with Saccharomyces cerevisiae [3] and above 1000 µg/mL in the assay with Saccharomyces cerevisiae [4].
On to `COC1=C(N)C(=O)c2nc(-c3nc(C(=O)O)c(C)c(-c4ccc(OC)c(OC)c4O)c3N)ccc2C1=O` [STREPTONIGRIN], for which the IC12 in the assay on Saccharomyces cerevisiae [2] was found to be 2.4 µg/mL; in the assay on Saccharomyces cerevisiae [3], 0.4 µg/mL.
For the molecule `CC(C)=CCC/C(C)=C/CN(C/C=C(\C)CCC=C(C)C)C(=N)N` [NITENSIDINE B], the IC12 in the assay on Saccharomyces cerevisiae [1] is 10 µg/mL; in the assay with Saccharomyces cerevisiae [2], above 8000 µg/mL; in the assay with Saccharomyces cerevisiae [3], above 500 µg/mL; in the assay on Saccharomyces cerevisiae [4], above 1000 µg/mL. In assay [5], half-maximal inhibition (IC50) was put at 9.3 µg/mL (≈ 28.1 µM).
As to `CC[C@@]1(O)C(=O)OCc2c1cc1n(c2=O)Cc2cc3ccccc3nc2-1` [CAMPTOTHECIN], the IC12 in the assay with Saccharomyces cerevisiae [2] amounted to 8.7 µg/mL; in the assay with Saccharomyces cerevisiae [3] it was 0.6 µg/mL. In assay [5], this molecule showed an IC50 of 0.016 µg/mL (≈ 0.0459 µM).
With `CC(C)=CCC/C(C)=C/CNC(=N)NC/C=C(\C)CCC=C(C)C` [NITENSIDINE A], the IC12 with Saccharomyces cerevisiae [1] is 6 µg/mL; in the assay with Saccharomyces cerevisiae [2], above 8000 µg/mL; in the assay on Saccharomyces cerevisiae [3], above 1000 µg/mL; with Saccharomyces cerevisiae [4] it was above 1000 µg/mL. In assay [5], this molecule displayed an IC50 of 13 µg/mL (≈ 39.2 µM).
Consider `CC(C)=CCC/C(C)=C/CN(C)C(=N)N(C)C/C=C(\C)CCC=C(C)C` [NITENSIDINE C], for which the IC12 in the assay on Saccharomyces cerevisiae [1] was 13 µg/mL; with Saccharomyces cerevisiae [2], above 8000 µg/mL; in the assay with Saccharomyces cerevisiae [3], above 8000 µg/mL; with Saccharomyces cerevisiae [4] it was above 8000 µg/mL. This molecule came in with an IC50 in assay [5] of 20 µg/mL (≈ 55.6 µM).
